Data: patent US20110190309A1, “PHARMACEUTICAL PRODUCT COMPRISING A […] RECEPTOR ANTAGONIST AND A Beta2-ADRENOCEPTOR AGONIST” (priority 2008, published 2011)
Several values for one entry are separate records, joined by “and”; a condition that tells them apart may be missing. Identical values can stand only once. Counter-ions that a name gives are not always drawn. Like-named read-outs stand apart in the source and are kept apart here.

Experiments:
[1] = target: T1, human muscarinic receptors (M3) (Homo sapiens, UniProt P20309); experiment: Muscarinic Receptor Radioligand Binding Assay ([3H]-NMS); conditions: human M3 membranes
T1 construct: purchased
T1 sequence (P20309 whole entry): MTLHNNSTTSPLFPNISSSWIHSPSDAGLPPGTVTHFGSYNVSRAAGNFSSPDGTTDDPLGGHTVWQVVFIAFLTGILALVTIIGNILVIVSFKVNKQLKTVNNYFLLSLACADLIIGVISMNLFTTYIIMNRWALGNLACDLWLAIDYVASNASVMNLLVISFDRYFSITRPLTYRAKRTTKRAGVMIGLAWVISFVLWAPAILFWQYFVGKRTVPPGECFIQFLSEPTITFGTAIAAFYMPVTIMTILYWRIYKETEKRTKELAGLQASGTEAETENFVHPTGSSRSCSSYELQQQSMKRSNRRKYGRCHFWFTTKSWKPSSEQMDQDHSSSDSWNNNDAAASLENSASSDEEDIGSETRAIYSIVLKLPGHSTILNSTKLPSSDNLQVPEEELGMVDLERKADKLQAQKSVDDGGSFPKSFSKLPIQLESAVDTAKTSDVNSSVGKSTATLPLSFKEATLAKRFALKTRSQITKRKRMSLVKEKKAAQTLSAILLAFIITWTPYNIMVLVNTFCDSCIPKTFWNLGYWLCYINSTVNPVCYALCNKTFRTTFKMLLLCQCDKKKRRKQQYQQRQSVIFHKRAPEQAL
Protocol: The inhibitory effects of compounds of the muscarinic antagonists were determined by a Muscarinic Receptor Radioligand Binding Assay. Radioligand binding studies utilising [^3H]-N-methyl scopolamine ([^3H]-NMS) and commercially available cell membranes expressing the human muscarinic receptors (M2 or M3) were used to assess the affinity of muscarinic antagonists for M2 and M3 receptors. Membranes in TRIS buffer were incubated in 96-well plates with [^3H]-NMS and M3 antagonist at various concentrations for 3 hours. Membranes and bound radioligand were then harvested by filtration and allowed to dry overnight. Scintillation fluid was then added and the bound radioligand counted using a Can berra Packard Topcount scintillation counter

[2] = Gravimetric Vapour Sorption (GVS); type: physicochemical; conditions: at 80% RH
Protocol: Gravimetric Vapour Sorption (GVS) profiles were measured using a Surface Measurements Systems Dynamic Vapour Sorption DVS-1, or DVS Advantage GVS instruments. The solid sample ca. 1-5 mg was placed into a glass or wire mesh vessel and the weight of the sample was recorded during a dual cycle step method (40 to 90 to 0 to 90 to 0% relative humidity (RH), in steps of 10% RH).

[3] = test system: guinea pig trachea; experiment: Bronchodilator activity in the guinea pig isolated tracheal ring preparation; conditions: methacholine 1 μM, 60 min, mean±s.e.mean
Protocol: Guinea pigs (300-500 g) were killed by cervical dislocation and the trachea was isolated. The trachea was cut into segments 2-3 cartilage rings in width and suspended in 10 ml organ baths in modified Krebs' solution (mM; NaCl, 90; NaHCO3, 45; KCl, 5; MgSO4.7H2O, 0.5; Na2HPO4.2H2O, 1; CaCl2, 2.25; glucose, 10; pH 7.4 gassed with 5% CO2, 95% O2 at 37° C.). The tracheal rings were attached to an isometric force transducer for the measurement of isometric tension. The tissues were washed and a force of 1 g was applied to each tissue. The rings were contracted with methacholine (1 μM). Once the contraction had reached a plateau, vehicle (0.01% DMSO in distilled H2O), indacaterol (10 nM), N-[2-(Diethylamino)ethyl]-N-(2-{[2-(4-hydroxy-2-oxo-2,3-dihydro-1,3-benzothiazol-7-yl)ethyl]amino}ethyl)-3-[2-(1-naphthyl)ethoxy]propanamide dihydrobromide (10 nM), N-Cyclohexyl-N^3-[2-(3-fluorophenyl)ethyl]-N-(2-{[2-(4-hydroxy-2-oxo-2,3-dihydro-1,3-benzothiazol-7-yl)ethyl]amino}ethyl)-(3-alaninamide di-D-mandelate salt (1 nM), (R)-3-(1-Phenyl-cycloheptanecarbonyloxy)-1-(pyridin-2-ylcarbamoylmethyl)-1-azonia-bicyclo[2.2.2]octane bromide (1 nM), a combination of (R)-3-(1-Phenyl-cycloheptanecarbonyloxy)-1-(pyridin-2-ylcarbamoylmethyl)-1-azonia-bicyclo[2.2.2]octane bromide (1 nM) and indacaterol (10 nM), a combination of N-[2-(Diethylamino)ethyl]-N-(2-{[2-(4-hydroxy-2-oxo-2,3-dihydro-1,3-benzothiazol-7-yl)ethyl]amino}ethyl)-3-[2-(1-naphthyl)ethoxy]propanamide dihydrobromide (10 nM) and (R)-3-(1-Phenyl-cycloheptanecarbonyloxy)-1-(pyridin-2-ylcarbamoylmethyl)-1-azonia-bicyclo[2.2.2]octane bromide (1 nM) and, or a combination of N-Cyclohexyl-N^3-[2-(3-fluorophenyl)ethyl]-N-(2-{[2-(4-hydroxy-2-oxo-2,3-dihydro-1,3-benzothiazol-7-yl)ethyl]amino}ethyl)-β-alaninamide di-D-mandelate salt (1 nM) and (R)-3-(1-Phenyl-cycloheptanecarbonyloxy)-1-(pyridin-2-ylcarbamoylmethyl)-1-azonia-bicyclo[2.2.2]octane bromide (1 nM) was added and the tissue left for 60 min. The tension was measured in each ring at 60 min following compound addition and was expressed as a % relaxation of the constriction to methacholine (1 μM) (mean±s.e.mean). Data were collected using the Chart 4 software (ADInstruments, Charlgrove, UK).

[4] = target: T2, β2 (Homo sapiens, UniProt P07550); experiment: Adrenergic β2 mediated cAMP production in H292 cells (AlphaScreen); type: cell-based; conditions: Intrinsic Activity as a fraction relative to the maximum activity of formoterol
T2 construct: endogenous in cells; host or cells: H292 cells
T2 sequence (P07550 whole entry): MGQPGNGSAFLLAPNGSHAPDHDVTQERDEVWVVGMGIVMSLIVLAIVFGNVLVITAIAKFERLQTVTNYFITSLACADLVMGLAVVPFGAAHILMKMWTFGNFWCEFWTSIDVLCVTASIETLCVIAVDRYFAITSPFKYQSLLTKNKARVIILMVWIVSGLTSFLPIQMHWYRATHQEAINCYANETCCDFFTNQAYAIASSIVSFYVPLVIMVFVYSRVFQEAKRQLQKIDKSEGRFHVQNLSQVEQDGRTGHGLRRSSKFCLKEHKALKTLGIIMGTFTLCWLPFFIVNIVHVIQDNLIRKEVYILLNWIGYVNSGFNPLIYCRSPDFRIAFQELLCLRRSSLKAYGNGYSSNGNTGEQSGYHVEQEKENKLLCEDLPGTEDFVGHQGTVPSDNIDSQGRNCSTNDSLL
Protocol: H292 cells were grown in 225 cm2 flasks incubator at 37° C., 5% CO2 in RPMI medium containing, 10% (v/v) FBS (foetal bovine serum) and 2 mM L-glutamine.
Adherent H292 cells were removed from tissue culture flasks by treatment with Accutase™ cell detachment solution for 15 minutes. Flasks were incubated for 15 minutes in a humidified incubator at 37° C., 5% CO2. Detached cells were re-suspended in RPMI media (containing 10% (v/v) FBS and 2 mM L-glutamine) at 0.05×10^6 cells per mL. 5000 cells in 100 μL were added to each well of a tissue-culture-treated 96-well plate and the cells incubated overnight in a humidified incubator at 37° C., 5% CO2. The culture media was removed and cells were washed twice with 100 μL assay buffer and replaced with 50 μL assay buffer (HBSS solution containing 10 mM HEPES pH7.4 and 5 mM glucose). Cells were rested at room temperature for 20 minutes after which time 25 μL of rolipram (1.2 mM made up in assay buffer containing 2.4% (v/v) dimethylsulphoxide) was added. Cells were incubated with rolipram for 10 minutes after which time Compound A was added and the cells were incubated for 60 minutes at room temperature. The final rolipram concentration in the assay was 300 μM and final vehicle concentration was 1.6% (v/v) dimethylsulphoxide. The reaction was stopped by removing supernatants, washing once with 100 μL assay buffer and replacing with 50 μL lysis buffer. The cell monolayer was frozen at −80° C. for 30 minutes (or overnight).
The concentration of cAMP (cyclic adenosine monophosphate) in the cell lysate was determined using AlphaScreen™ methodology. […] The AlphaScreen™ signal was measured using an EnVision spectrophotometer (Perkin-Elmer Inc.) with the recommended manufacturer's settings. cAMP concentrations were determined by reference to a calibration curve determined in the same experiment using standard cAMP concentrations. […] Intrinsic Activity was expressed as a fraction relative to the maximum activity determined for formoterol in each experiment.

[5] = class symbols of M3 Binding IC50, read-out: M3 pIC50 (converted)

Question: With `O=C(C[N+]12CCC(CC1)[C@@H](OC(=O)C1(c3ccccc3)CCCCCC1)C2)Nc1cccnc1` [Example 12, (R)-3-(1-Phenyl-cycloheptanecarbonyloxy)-1-(pyridin-3-ylcarbamoylmethyl)-1-azonia-bicyclo[2.2.2]octane chloride] as the compound, how does the IC50 [1, 5] read?
Answer: The IC50 was less than 2 nM.

Question: With `O=C(C[N+]12CCC(CC1)[C@@H](OC(=O)C1(c3ccccc3)CCCCCC1)C2)Nc1ccc(F)cn1` [Example 10, (R)-1-[(5-Fluoro-pyridin-2-ylcarbamoyl)-methyl]-3-(1-phenyl-cycloheptanecarbonyloxy)-1-azonia-bicyclo[2.2.2]octane chloride] as the compound, how does the IC50 [1, 5] read?
Answer: Its IC50 is less than 2 nM.

Question: What does the source list for `O=C(C[N+]12CCC(CC1)[C@@H](OC(=O)C1(c3ccccc3)CCCCCC1)C2)Nc1ccccn1.[Cl-]` [Example 3, (R)-3-(1-Phenyl-cycloheptanecarbonyloxy)-1-(pyridin-2-ylcarbamoylmethyl)-1-azonia-bicyclo[2.2.2]octane chloride]?
Answer: IC50 [1, 5]: < 2 nM; GVS weight increase [2]: negligible

Question: With `O=C(C[N+]12CCC(CC1)[C@@H](OC(=O)C1(c3cccc(F)c3)CCCCCC1)C2)Nc1ccon1` [Example 9, (R)-3-[1-(3-Fluoro-phenyl)-cycloheptanecarbonyloxy]-1-(isoxazol-3-ylcarbamoylmethyl)-1-azonia-bicyclo[2.2.2]octane bromide] as the compound, how does the IC50 [1, 5] read?
Answer: Its IC50 is less than 2 nM.

Question: Which GVS weight increase [2] does the source give for `O=C(C[N+]12CCC(CC1)[C@@H](OC(=O)C1(c3ccccc3)CCCCCC1)C2)Nc1cnccn1.[Cl-]` [Example 2, (R)-3-(1-Phenyl-cycloheptanecarbonyloxy)-1-(pyrazin-2-ylcarbamoylmethyl)-1-azonia-bicyclo[2.2.2]octane chloride] here?
Answer: The GVS weight increase was 9 % w/w.

Question: With `CCc1cc2c(cc1CC)CC(NC[C@H](O)c1ccc(O)c3[nH]c(=O)ccc13)C2` [indacaterol, reference compound] as the compound, how does the “percentage relaxation of the constriction to methacholine” value (“percentage relaxation” for short) ([3]; 10 nM) read?
Answer: Its value is 24±6.9%.

Question: For `O=C(C[N+]12CCC(CC1)[C@@H](OC(=O)C1(c3ccccc3)CCCCCC1)C2)Nc1ccccn1.[Br-]` [Example 4, (R)-3-(1-Phenyl-cycloheptanecarbonyloxy)-1-(pyridin-2-ylcarbamoylmethyl)-1-azonia-bicyclo[2.2.2]octane bromide], which “percentage relaxation” value ([3]; 1 nM, listed as Compound Z) is on record?
Answer: The value was 9±9.4%.

Question: What about the “percentage relaxation” value ([3]; 1 nM, listed as compound Z) of the same compound?
Answer: The value was 9±4.3% and 5±1.8%.

Question: And the GVS weight increase [2]?
Answer: Its GVS weight increase is “negligible”.

Question: Which IC50 ([1]; read-out: M3 pIC50 (converted)) does the source give for `O=C(C[N+]12CCC(CC1)[C@@H](OC(=O)C1(c3ccccc3)CCCCCC1)C2)Nc1cnccn1.[Br-]` [Example 1, (R)-3-(1-Phenyl-cycloheptanecarbonyloxy)-1-(pyrazin-2-ylcarbamoylmethyl)-1-azonia-bicyclo[2.2.2]octane bromide] here?
Answer: The IC50 was 0.0794 nM.

Question: And the GVS weight increase [2]?
Answer: The GVS weight increase was 3 % w/w.

Question: Which “β2 Int Act” value [4] does the source give for `CCN(CC)CCN(CCNCCc1ccc(O)c2[nH]c(=O)sc12)C(=O)CCOCCc1cccc(Cl)c1` [BA2, N-[2-(Diethylamino)ethyl]-N-(2-{[2-(4-hydroxy-2-oxo-2,3-dihydro-1,3-benzothiazol-7-yl)ethyl]amino}ethyl)-3-[2-(3-chlorophenyl)ethoxy]propanamide dihydrobromide] here?
Answer: Its value is 0.7.

Question: For `Cc1cc(NC(=O)C[N+]23CCC(CC2)[C@@H](OC(=O)C2(c4ccccc4)CCCCCC2)C3)ccn1` [Example 11, (R)-1-[(2-Methyl-pyridin-4-ylcarbamoyl)-methyl]-3-(1-phenyl-cycloheptanecarbonyloxy)-1-azonia-bicyclo[2.2.2]octane chloride], which IC50 [1, 5] is on record?
Answer: The IC50 was less than 2 nM.

Question: With `O=C(C[N+]12CCC(CC1)[C@@H](OC(=O)C1(c3cccc(F)c3)CCCCCC1)C2)Nc1cnccn1` [Example 8, (R)-3-[1-(3-Fluoro-phenyl)-cycloheptanecarbonyloxy]-1-(pyrazin-2-ylcarbamoylmethyl)-1-azonia-bicyclo[2.2.2]octane bromide] as the compound, how does the IC50 [1, 5] read?
Answer: Its IC50 is less than 2 nM.

Question: Which “percentage relaxation” value ([3]; 1 nM) does the source give for “N-Cyclohexyl-N^3-[2-(3-fluorophenyl)ethyl]-N-(2-{[2-(4-hydroxy-2-oxo-2,3-dihydro-1,3-benzothiazol-7-yl)ethyl]amino}ethyl)-β-alaninamide di-D-mandelate [compound W]” here?
Answer: The value was 23±10%.

Question: For `O=C(C[N+]12CCC(CC1)[C@@H](OC(=O)C1(c3ccccc3)CCCCCC1)C2)Nc1cnccn1` [Example 6, (R)-3-(1-Phenyl-cycloheptanecarbonyloxy)-1-(pyrazin-2-ylcarbamoylmethyl)-1-azonia-bicyclo[2.2.2]octane 2,5-dichloro-benzenesulfonate], which GVS weight increase [2] is on record?
Answer: Its GVS weight increase is roughly 0.2 % w/w.

Question: Which IC50 [1, 5] does the source give for `O=C(C[N+]12CCC(CC1)[C@@H](OC(=O)C1(c3ccccc3)CCCCCC1)C2)Nc1cccnn1` [Example 13, (R)-3-(1-Phenyl-cycloheptanecarbonyloxy)-1-(pyridazin-3-ylcarbamoylmethyl)-1-azonia-bicyclo[2.2.2]octane bromide] here?
Answer: The IC50 was less than 2 nM.

Question: For `O=C(C[N+]12CCC(CC1)[C@@H](OC(=O)C1(c3ccccc3)CCCCCC1)C2)Nc1cnccn1` [Example 5, (R)-3-(1-Phenyl-cycloheptanecarbonyloxy)-1-(pyrazin-2-ylcarbamoylmethyl)-1-azonia-bicyclo[2.2.2]octane 1-hydroxy-naphthalene-2-sulfonate], which GVS weight increase [2] is on record?
Answer: Its GVS weight increase is roughly 0.3 % w/w.

Question: Which GVS weight increase [2] does the source give for `O=C(C[N+]12CCC(CC1)[C@@H](OC(=O)C1(c3ccccc3)CCCCCC1)C2)Nc1cnccn1` [Example 7, (R)-3-(1-Phenyl-cycloheptanecarbonyloxy)-1-(pyrazin-2-ylcarbamoylmethyl)-1-azonia-bicyclo[2.2.2]octane hemi-naphthalene-1,5-disulfonate] here?
Answer: Its GVS weight increase is 1.6 % w/w.

Question: For `O=C(C[N+]12CCC(CC1)[C@@H](OC(=O)C1(c3ccccc3)CCCCCC1)C2)Nc1ccccn1` [Example 14, (R)-3-(1-Phenyl-cycloheptanecarbonyloxy)-1-(pyridin-2-ylcarbamoylmethyl)-1-azonia-bicyclo[2.2.2]octane hemi-naphthalene-1,5-disulfonate], which GVS weight increase [2] is on record?
Answer: Its GVS weight increase is 1 % w/w.
